Experimental data as given in US6214805A, “RNase L activators and antisense oligonucleotides effective to treat RSV infections” (priority 1997, dated 2001).

Assays:
RSV strain A2 [1] = test: Antiviral activity in MA-104 cells, visual CPE; assay type: cell-based, Respiratory syncytial virus; settings: visual CPE, MOI = 0.005, added twice daily for 4 d, read on d 5
Description: (§1) A comparison of the efficacies of spA4 -antiRSV3'3'T/(8281-8299) treatment and conventional ribarvirin treatment can be obtained by determining the RSV-inhibitory concentration and the cytotoxic concentration of each compound. Cultures of the human laryngeal carcinoma cell line HEp-2 and the […] renal cell line MA-104 were established and infected with an MOI=0.005. Cultures were fed twice daily. Treatment with either ribavirin or spA4 -antiRSV3'3'T/(8281-8299) was begun simultaneously with infection and continued for four days. Treatment was then withdrawn and the test read on day 5. The effects of treatment on RSV infection were reported as 1) an EC50, the concentration at which there was a 50% reduction in the observable cytopathic effects of infection and 2) an EC90, the concentration at which there was a 90% reduction in viral production. […] Therapeutic efficacy is estimated by the Selectivity Index, which is the ratio of IC50 /EC50.
(§2) as determined with RSV strain A2, MOI = 0.005
(§3) Fresh medium and oligo or ribavirin added twice daily for 4 d and test read
(§4) EC50 effective concentration to reduce RSV-induced CPE by 50%.

RSV strain A2 [2] = test: Inhibition of RSV replication in RSV-infected 9HTE cells, virus plaque assay on CV-1 cells at 36 h post-infection; assay type: cell-based, Respiratory syncytial virus; settings: for % Inhibition of RSV replication: 9HTE cells, M.O.I. 2.0, 36 hrs post-infection
Description: To develop 2-5A antisense chimeras with the potential to block RSV replication, an oligonucleotide binding site in the viral RNA polymerase (RSV L) mRNA, which encodes a low abundance message that is absolutely required for RSV replication was selected. The first chimera synthesized and evaluated was pA4 -antiRSV/(8490-8509). The binding sites for the chimeric oligonucleotide's antisense domain are to the transcripts of nucleotides 8490-8509 in the RSV genome, which spans the translation start codon for the L protein, and to nucleotides 8490-8509 of the antigenomic strand (the template for reproduction of the genome). Since to function as an effective treatment, a candidate agent must be able to inhibit viral replication subsequent to diagnosis, the anti-RSV effect of the 2-5A antisense chimera was determined on human tracheal epithelial cells, 9HTE, with treatments beginning either 4 h before RSV infection (pre-/post-infection treatments) or 2 h following infection (post-infection treatments). In the post-infection treatments, pA4 -antiRSV/([…]), was added at t+2, t+14 and t+26, (numbers represent time in h relative to time of infection, 0) For pre-infection treatment, pA4 -antiRSV/(8490-8509) (10 μM final concentration), was added at t-4, and t0 in addition to […]; t+14 and t+26. Virus harvested from control and oligonucleotide-treated 9HTE cells was measured by infecting CV-1 cells and subsequently counting viral plaques. […] On the basis of these experiments, all subsequent experiments were performed with post-infectiontreatments only. Additionally, these experiments indicate the potential use of these compounds as a treatment for active infection as compared to a prophylactic measure.
The human tracheal epithelial cell line, 9HTE, (Gruenert et al., 1988) and CV-1 cells, (American Type Culture Collection, Rockville, Md., CCI#70) a green monkey kidney cell line which is highly permissive to RSV infection, were cultured in minimal essential medium (MEM) supplemented with 10% (v/v) fetal bovine serum (FBS), 2 mM L-glutamine, 1× MEM amino acids solution, 1× MEM non-essential amino acids solution, 100 U/ml penicillin, 100 μg/ml streptomycin and 0.25 μg/ml amphotericin B ("culture medium") (all reagents from Gibco BRL, Bethesda, Md.). RSV strain A2 (ATCC No. VR1302) was propagated in CV-1 cells. CV-1 monolayers were infected at a multiplicity of infection (M.O.I.) of 0.2 and cultured 46 h in MEM, 2% FBS, 1× Penicillin/Streptomycin (PS) in 5% CO2, 95% O2 at 37° C. Cells were then washed 2 times in MEM and subsequently covered in MEM, 2% FBS, 1× PS, 50 mM HEPES (pH7.5), 100 mM Mg(SO4). After 2 h at 37° C., cells were scraped and sonicated as previously described (Panuska et al., 1995). Aliquots (1 ml each) of cell sonicates were flash frozen in ethanol/dry ice within 20 min of scraping. Several aliquots were then thawed and titered by a plaque assay on CV-1 cells as previously described (Cirino et al., 1993). The range of virus yield from this procedure was 2 to 7×10^6 plaque forming units (pfu) per ml.
Infection of 9HTE cells was performed as previously described (Merolla et al., 1994). Briefly, confluent monolayers were exposed to RSV diluted in MEM, 2% FBS, for 2 h at 37° C. in 5% CO2, 95% O2. After exposure, cells were washed two times with serum-free MEM media and then fresh culture media (with 10% FBS) was added. Oligonucleotides were either added 4 h prior to infection (t-4) or immediately after infection (t+2) and also at t+14 and t+26. Cells were harvested for plaque assays at 36 h post-infection to determine viral titers as previously described (Cirino et al., 1993). Cells were washed twice to remove any residual antisense and were then scraped in MEM containing 2% FBS, 1× PS. 9HTE cells were sonicated for 20 sec on ice then the extracts were serially diluted and transferred to a confluent monolayer of CV-1 for quantitation of infectious viral particles. […]

RSV strain A2 [3] = test: Virus yield reduction in MA-104 cells; assay type: cell-based, Respiratory syncytial virus; settings: RSV yield reduced by 90%, MOI = 0.005, added twice daily for 4 d
Description: as §1, §2, §3
EC90 effective concentration to reduce RSV yield by 90%.

RSV M2 RNA = test: RT-PCR of M2 RNA from RSV-infected 9HTE cells; assay type: cell-based, Respiratory syncytial virus; settings: RNA at 8 h post-infection, M.O.I.=10
Procedure: To determine if RSV RNA levels correlated with antiviral activity, RT-PCR analysis was performed on RNA isolated from RSV-infected and uninfected 9HTE cells with and without treatment with spA4 -antiRSV3'3'T/(8281-8299) or spA4 -antiRSV3'3'A/(8530-8547). An M2 RNA sequence in RSV (from nucleotides 7879 to 8465) was converted to cDNA and amplified by PCR. M2 RNA from the RSV-infected cells produced an RT-PCR DNA product that was clearly visible. […] Levels of GAPDH transcripts were similar in all of these RNA preparations.
RNA was collected from 2×10^5 9HTE cells at 8 h post-infection (M.O.I.=10) by RNAzol treatment as described by the manufacturer (Tel-Test, Inc, Freindswood, Tex.). RNA was isolated after 8 h to limit RSV replication to a single cycle. Isolated RNA (≈1 μg) was incubated with 100 pmoles of the appropriate downstream (-) primer listed below or 100 pmoles of random hexamer (used for glyceraldehyde-3-phosphatedehydrogenase, GAPDH, mRNA only). RNA and primers were heated to 70° C. for 10 min then cooled rapidly on ice for 5 min. […]
25 μl Hot-Start upper buffer contained 5 U Taq DNA polymerase (GibcoBRL) and 1/10th of the cDNA from the RT reaction. […] Aliquots of the RT/PCR mixtures were analyzed on 1% agarose/TBE gels.

RSV strain A2 [4] = test: Antiviral activity in Hep-2 cells, neutral red (reduction of RSV-induced CPE); assay type: cell-based, Respiratory syncytial virus; settings: neutral red, MOI = 0.005, added twice daily for 4 d, read on d 5
Description: as §1
determined with RSV strain A2, MOI = 0.005
as §3, §4

MA-104 Cells = test: Cytotoxicity to MA-104 cells (visual and dye uptake, rapidly dividing cells); assay type: cell-based, murine
Description: as §1
(§5) IC50 50% inhibitory concentration for cytotoxicity to cells (visual

Hep-2 Cells = test: Cytotoxicity to Hep-2 cells (visual and dye uptake, rapidly dividing cells); assay type: cell-based, human
Description: as §1, §5

In the case of “spA2'p(A2'p)3 -[(Bu)p]2 -(5'atg gtt att tgg gtt gtt3'-3't5') [spA4-antiRSV3'-3'T/(8281-8299)]”, the EC50 (RSV strain A2 [1]) is reported as 20 nM, the “% Inhibition of RSV replication” value (RSV strain A2 [2]; 3.3 μM oligonucleotide/treatment at t+2, t+14, t+26 h) is reported as 91.3% and the “% Inhibition of RSV replication” value (RSV strain A2 [2]; 6.6 μM oligonucleotide/treatment at t+2, t+14, t+26 h) is reported as 97%. For the same substance, the “% Inhibition of RSV replication” value (RSV strain A2 [2]; 9.9 μM oligonucleotide/treatment at t+2, t+14, t+26 h) was 99.6%, the “comparison of anti-RSV activities (FIG. 3)” value (RSV strain A2 [2]; spA4-linked versus spA2-linked oligonucleotide) was “greater potency” and the EC90 (RSV strain A2 [3]) was 20 nM. For the same substance, the “M2 RNA RT-PCR product” value (RSV M2 RNA) was “no M2 RNA detected”, the EC50 (RSV strain A2 [4]) was 300 nM and the IC50 (MA-104 Cells) was > 10000 nM. For the same substance, the IC50 (Hep-2 Cells) was > 10000 nM.
